Measurements taken from paper PMC2731040 (BMC Clinical Pharmacology, 2009).

What was measured:
[1] = tested on: nondependent cocaine-experienced subjects; assay: Subjective measures (verbal ratings, visual analog scales, POMS) during cocaine challenge sessions; assay type: in vivo, human; details: for Cocaine Craving (0–100), Peak change / Global Intoxication (0–100), Peak change: verbal rating; for Bad Drug Effect (0–100), Peak change / Good Drug Effect (0–100), Peak change: visual analog scale
Excerpt: Verbal ratings of global intoxication and craving (on a scale of 0 to 100) were obtained at the same time points as the physiologic measures, with 0 representing no drug effect and 100 representing the highest level of intoxication or craving.
Visual analog scales were used to rate the degree of drug liking by moving an arrow along a 10 cm line marked at opposite ends as 0 (not at all) and 100 (extreme) using a hand-held computer (Tandy 102). Items rated on the visual analog scale included "good drug effect" and "bad drug effect," and were obtained prior to cocaine infusion and at 0.17, 0.5, 0.75, 1, 1.5, 2, 2.5, 3, 3.5, 4, 4.25, 4.5, 5, 6, and 8 hours after dosing.
The Profile of Mood States (POMS) assessed mood changes in Anger, Confusion, Fatigue, Tension, and Vigor on a scale from 0 to 4, where 0 indicated "no effect" and 4 indicates "extremely strong". Ratings were obtained prior to cocaine infusion and at 1, 3, and 6 hours after dosing.
The time courses of physiologic and subjective data were analyzed by repeated measures analysis of variance (ANOVA). Treatment conditions (Sessions 1 and 2) and observation times (hours post-dose) were considered within-subject factors. Change scores (post-dose minus pre-dose values) were used in most analyses. Raw score were used where indicated. After a significant F test, pairwise comparisons of treatment conditions were performed using the least squares means analysis. Peak effects within a session were determined for each subject and each variable and analyzed using a one-factor repeated measures ANOVA. Effects were considered statistically significant at p = 0.05. Data were adjusted for sphericity using the Huynh-Feldt adjustment factor. Huynh-Feldt-corrected significance values are reported.

[2] = Plasma pharmacokinetics of cocaine and benzoylecgonine after IV cocaine-d5 infusion; details: plasma, mean ± SD; for half-life / AUC(0-t) / AUC(0-inf) / clearance / Tmax / Vd / Cmax / k el: human, in vivo; for half-life: (t1/2)z; for clearance: CL; for Vd: Vz; for Cmax: iv, cocaine-d5 IV 0.5 mg/kg over 10 min then 2 mg/kg over 4 h; for k el: λz
Experimental: In this open-label, unblinded study, a 0.5 mg/kg intravenous loading dose of cocaine-d5 HCl over 10 minutes was followed by a slow 4 hour constant rate cocaine-d5 infusion of 2.0 mg/kg(~175 mg for a 70 kg person). […] When this method of cocaine administration is utilized, a larger dose can be given over a longer period of time and approximates frequently reported patterns of cocaine use. This method also allowed for close monitoring and termination of the infusion if untoward psychiatric or cardiovascular effects occurred.
For both cocaine infusions (sessions 1 and 2), plasma samples for cocaine and metabolites (~6 ml) were obtained 5 minutes before and 10 minutes, 0.5, 1, 1.5, 2, 4, 4.25, 4.5, 5, 6, 8, 12, 21, 27, 33, and 45 hours after each cocaine infusion.
Plasma concentrations of cocaine and benzoylecgonine were measured in our laboratory using a method we developed. The method allows for simultaneous determination of cocaine, benzoylecgonine, and deuterium-labeled analogs [cocaine-d5 and benzoylecgonine-d5 (BE-d5)] by using combined gas chromatography-mass spectrometry (GC-MS). Differently labeled stable isotope analogs were used as internal standards. The calibration curves were from 5 to 2,000 ng/mL for cocaine-d5 and 10 to 2,000 ng/mL for BE-d5. Lower limits of quantitation (LLOQ) were 5 ng/ml (cocaine-d5) and 10 ng/ml (BE-d5) in plasma. Qualitative urine benzoylecgonine was measured by Northwest Toxicology Laboratory, Salt Lake City, Utah, using the Roche Diagnostics Online® immunoassay.
The plasma concentration-time profiles for cocaine and benzoylecgonine (BE) were analyzed by non-compartmental methods, utilizing the pharmacokinetic data analysis program WinNonlin Pro, version 3.0 [31].
The area under the plasma concentration-time curve was calculated using the linear trapezoidal rule up to the maximum plasma concentration, and thereafter using the logarithmic trapezoidal rule to the last measurable plasma concentration. The remaining area was extrapolated to infinity by dividing the last appropriate plasma concentration by the terminal exponential rate constant.
Maximum plasma concentration (Cmax) and time of maximum plasma concentration (Tmax) were determined by visual inspection of data. "Terminal" exponential half-life [(t1/2)z] was calculated from log-linear regression of "terminal" exponential phase data points. Cocaine clearance (CL) and terminal exponential volume of distribution (Vz) were calculated by conventional equations: CL = [Dose/Area under the curve (AUC)0-∞] and Vz = CL/λz, respectively, where λz ("terminal" exponential rate constant) = ln2/(t1/2)z. […] Amount of BE in urine samples was calculated by multiplying concentration by volume.

[3] = Session 1: first cocaine infusion, before selegiline
[4] = Session 2: second cocaine infusion, after one week of selegiline STS

In the case of `COC(=O)[C@H]1[C@@H](OC(=O)c2ccccc2)C[C@@H]2CC[C@H]1N2C` [Cocaine, cocaine], the “Bad Drug Effect, Peak Time” value [1, 3] is reported as 1.9 ± 2.3 Hr Postdose, the “Cocaine Craving, Peak Time” value [1, 3] is reported as 1.1 ± 1.3 Hr Postdose and the “Global Intoxication, Peak Time” value [1, 3] is reported as 0.7 ± 1 Hr Postdose. The “Good Drug Effect, Peak Time” value [1, 3] was 0.9 ± 1.5 Hr Postdose, the “POMS Anger (0–28), Peak change” value [1, 3] was 2.8 ± 6.4 and the “POMS Anger, Peak Time” value [1, 3] was 6 ± 0 Hr Postdose. The “POMS Confusion (0–20), Peak change” value [1, 3] was 2.5 ± 2.8, the “POMS Confusion, Peak Time” value [1, 3] was 6 ± 0 Hr Postdose and the “POMS Depression (0–64), Peak change” value [1, 3] was 3 ± 6.5. The “POMS Depression, Peak Time” value [1, 3] was 3 ± 0 Hr Postdose, the “POMS Fatigue (0–28), Peak change” value [1, 3] was 5.9 ± 5.9 and the “POMS Fatigue, Peak Time” value [1, 3] was 6 ± 0 Hr Postdose. For the same compound, the “POMS Tension (0–28), Peak change” value [1, 3] was 7.5 ± 6.1, the “POMS Tension, Peak Time” value [1, 3] was 1 ± 0 Hr Postdose and the “POMS Vigor (0–32), Peak change” value [1, 3] was -3.6 ± 3.4. For the same compound, the “POMS Vigor, Peak Time” value [1, 3] was 6 ± 0 Hr Postdose, the “Cocaine Craving (0–100), Peak change” value [1, 3] was 33 ± 25 and the “Global Intoxication (0–100), Peak change” value [1, 3] was 57 ± 27. The “Bad Drug Effect (0–100), Peak change” value [1, 3] was 46 ± 31, the “Good Drug Effect (0–100), Peak change” value [1, 3] was 66 ± 23 and the “Bad Drug Effect, Peak Time” value [1, 4] was 1.4 ± 1.9 Hr Postdose. For the same compound, the “Cocaine Craving, Peak Time” value [1, 4] was 0.6 ± 0.7 Hr Postdose, the “Global Intoxication, Peak Time” value [1, 4] was 0.6 ± 0.9 Hr Postdose and the “Good Drug Effect, Peak Time” value [1, 4] was 1 ± 1.3 Hr Postdose. The “POMS Anger, Peak Time” value [1, 4] was 6 ± 0 Hr Postdose, the “POMS Confusion (0–20), Peak change” value [1, 4] was 2.7 ± 4.7 and the “POMS Confusion, Peak Time” value [1, 4] was 3 ± 0 Hr Postdose. For the same compound, the “POMS Depression (0–64), Peak change” value [1, 4] was 1.5 ± 2.4, the “POMS Depression, Peak Time” value [1, 4] was 3 ± 0 Hr Postdose and the “POMS Fatigue (0–28), Peak change” value [1, 4] was 2.8 ± 5.3. The “POMS Fatigue, Peak Time” value [1, 4] was 6 ± 0 Hr Postdose, the “POMS Tension (0–28), Peak change” value [1, 4] was 4.8 ± 3.9 and the “POMS Tension, Peak Time” value [1, 4] was 1 ± 0 Hr Postdose. For the same compound, the “POMS Vigor (0–32), Peak change” value [1, 4] was -3.9 ± 6.1, the “POMS Vigor, Peak Time” value [1, 4] was 6 ± 0 Hr Postdose and the “POMS Anger (0–28), Peak change” value ([1]; Session 2: second cocaine infusion, after one week of selegiline STS, significantly different from Session 1 (p < 0.03)) was -2.1 ± 5.7. The “Cocaine Craving (0–100), Peak change” value [1, 4] was 20 ± 21, the “Global Intoxication (0–100), Peak change” value [1, 4] was 53 ± 23 and the “Bad Drug Effect (0–100), Peak change” value [1, 4] was 55 ± 25. For the same compound, the “Good Drug Effect (0–100), Peak change” value [1, 4] was 60 ± 21, the “Global intoxication, verbal ratings of craving, and good drug effect compared to baseline” value ([1]; both cocaine challenge sessions) was “increased” and the AUCext ([2]; Pre Selegiline (session 1)) was 1.40 ± 1.03%. For the same compound, the AUCext ([2]; With Selegiline (session 2)) was 1.78 ± 1.87%, the half-life ([2]; Pre Selegiline (session 1)) was 1.71 ± 0.81 h and the half-life ([2]; With Selegiline (session 2)) was 1.57 ± 0.3 h. For the same compound, the AUC(0-t) ([2]; Pre Selegiline (session 1)) was 2640 ± 55.6 ng·h/mL, the AUC(0-t) ([2]; With Selegiline (session 2)) was 2360 ± 499 ng·h/mL and the AUC(0-inf) ([2]; Pre Selegiline (session 1)) was 2680 ± 1470 ng·h/mL. It also gave an AUC(0-inf) ([2]; With Selegiline (session 2)) of 2400 ± 487 ng·h/mL, a clearance ([2]; Pre Selegiline (session 1)) of 18.3 ± 6.17 mL/min/kg and a clearance ([2]; With Selegiline (session 2)) of 18 ± 3.34 mL/min/kg. The Tmax ([2]; Pre Selegiline (session 1)) was 2.66 ± 1.74 h, the Tmax ([2]; With Selegiline (session 2)) was 2.27 ± 2.04 h and the Vd ([2]; Pre Selegiline (session 1)) was 2.49 ± 0.88 L/kg. It also gave a Vd ([2]; With Selegiline (session 2)) of 2.44 ± 0.64 L/kg, a Cmax ([2]; Pre Selegiline (session 1)) of 721 ± 773 ng/mL and a Cmax ([2]; With Selegiline (session 2, after one week STS 6 mg/24 hours)) of 640 ± 332 ng/mL. It also gave a k el ([2]; Pre Selegiline (session 1)) of 0.000126 s⁻¹ and a k el ([2]; With Selegiline (session 2)) of 0.000127 s⁻¹.
